Laboratory results published in patent publication US20130203649A1, “INHIBITORS OF TLR SIGNALING BY TARGETING TIR DOMAIN INTERFACES” (UNIVERSITY OF MARYLAND, BALTIMORE, priority 2012, published 2013).
Residues, ends and D or L forms follow the SMILES beside them. No end group written: not given here.

What was measured:
C57BL/6J mice = experiment: In vivo efficiency of decoy peptides (Table 1; LPS challenge in mice); set-up: species or system mouse
Procedure: FIG. 4. Effect of select TRAP decoy peptides on TNF-α and IL-6 in blood following an ip LPS challenge. C57BL/6J mice were injected with TR5, TR6, or TR7 peptide or mock-treated 1 hour before injection of purified E. coli LPS. Peptides and LPS were injected to mice intraperitonealy 10 nmol or 1 μg per gram of animal weight, correspondingly.
FIG. 10. […] (A-E) C57BL/6J mice were injected i.p. with purified Escherichia coli K235 LPS (1 μg/g) or PBS. Peptides (10 nmol/g of animal weight) were injected i.p. (A, B, D, E) or i.v. (C) 1 h before (A, B, and C) or 30 min after (D, E) i.p. injection of LPS. Data in panels A and D show plasma IL-6 and TNF-α levels measured 2 h after LPS challenge. Peptide TM8/9 was used as a non-inhibitory control peptide. Data represent the means±s.e.m. for 6-12 blood samples obtained in at least three independent experiments. *p<0.01. (F, G) C57BL/6J mice were challenged i.p. with a lethal LPS dose (17.5 μg/g). Peptides (10 nmol/g) were injected i.p. 1 h before LPS challenge. […] The statistical significance of changes in mortality and survival time was determined by the Mantel Cox log-rank test using GraphPad Prism software (Version 5.04). *p<0.01.
Eight-week-old C57BL/6J mice were injected with 1 or 17.5 μg/g animal weight of E. coli K235 LPS i.p. Peptides reconstituted in PBS were administered i.p. or i.v. Control groups received equivalent volume of solvent (PBS). The blood samples were collected 1, 2, 4, and 8 h, or 2, 8, and 24 h after LPS challenge. The plasma samples were obtained and kept frozen until TNF-α and IL-6 were measured by ELISA. Survival of animals was monitored every 6-16 h after LPS challenge. All animal experiments were carried out with institutional approval.

TLR4 [1] = experiment: LPS-induced cytokine mRNA expression in mouse macrophages (real-time RT-PCR); type: cell-based; settings: for LPS-induced IFNβ and Rantes cytokine mRNA production / LPS-induced IL-1β mRNA production: 5 μM peptide; for LPS-induced IFNβ and Rantes cytokine mRNA production / LPS-induced IL-1β mRNA production / LPS-induced IL-1β, IFNβ, and RANTES mRNA / LPS-induced TNFα mRNA expression: LPS 10 ng/ml, 1 h
Procedure: C57BL/6J mice were obtained from The Jackson Laboratory (Bar Harbor, Me.). Primary peritoneal macrophages were obtained by peritoneal lavage 4 days after intraperitoneal injection (3 ml) of sterile 3% thioglycolate broth. Washed cells were resuspended in RPMI 1640 which contained 2% FBS, 1% penicillin:streptomycin and 2 mM L-glutamine. After plating, cells were incubated overnight at 37° C. and then washed with PBS to remove non-adherent cells. Cells were exposed to peptides 30 min before stimulation with a TLR agonist.
Total cellular RNA was isolated using Tripure from Roche (San Francisco, Calif.) following manufacture's protocol. RNA was then reverse transcribed using AMV Reverse Transcriptase from Promega (Madison, Wis.) with poly-T priming as per manufacturer's directions. cDNA was then quantified by real-time PCR using Applied Biosystems Fast SYBR Green PCR Master Mix and an ABI Prism 7500HT cycler. Primers used for detection: hypoxanthine phosphoribosyltransferase (HPRT) (forward: […] (SEQ ID NO:51), reverse: […] (SEQ ID NO:52)), TNFα (forward: […] (SEQ ID NO:53), reverse: […] (SEQ ID NO:54)), IL-1β (forward: […] (SEQ ID NO:55), reverse: […] (SEQ ID NO:56)), IFNβ (forward: […] (SEQ ID NO:57), reverse: CTCGGACCACCATCCAGG (SEQ ID NO:58)) and RANTES (forward: […] (SEQ ID NO:59), reverse: […] (SEQ ID NO:60)). The primers were designed using Primer Express 2.0 (Applied Biosystems). Using HPRT as reference, the ΔCt method was used to calculate relative gene expression. One-way ANOVA was preformed, as well as Dunnett's multiple comparison post hoc test with a p≦0.01 selected as the level of significance.
Total RNA was isolated with Nucleospin RNA II kits (Macherey-Nagel, Bethlehem, Pa.), followed by DNase digestion. cDNA was synthesized from 1 μg RNA using Goscript transcriptase (Promega), and subjected to real-time PCR with gene-specific primers for HPRT, TNF-α, IL-1β, IFNβ, and RANTES on H7900 ABI system using Fast SYBR Green master mix (Applied Biosystems, Foster City, Calif.).
To evaluate peptide-inhibitory activities, we first measured LPS-induced cytokine mRNA expression. […] […] Decoy peptide TM4 is derived from the BB loop of TRAM TIR; we previously identified this peptide as an effective TLR4 inhibitor (19).

TLR4 [2] = experiment: LPS-induced cytokine secretion by mouse macrophages (ELISA/multiplex); type: cell-based; settings: for LPS-induced Rantes production: 6 h supernatants; for Decrease in LPS-induced cytokine production (FIG. 2, 8 panels): LPS 10 ng/ml for 5, 6 or 24 h
Procedure: Cytokine secretion was measured in supernatant samples collected at 6 or 24 h time points and stored at −80° C. Samples were analyzed by a multiplex assay at the University of Maryland Baltimore Cytokine Core Facility using a Luminex 100 reader and Softmax Pro software, or by ELISA kits for mouse IL-6 or TNF-α from BioLegend (San Diego, Calif.) and LT-4000 microplate reader.
A total of 2×10^6 cells was plated in 12-well plates and treated with peptides for 30 min prior to LPS stimulation. TNF-α, IL-1β, IL-6, and IFN-β were measured using ELISA kits from BioLegend (San Diego, Calif.), as recommended by the manufacturer.

Molecule | In vivo efficiency (C57BL/6J mice) | LPS-induced (TLR4-mediated) cytokine mRNA expression (TLR4 [1]; 5 or 20 μM peptide 30 min before LPS, 1 or 5 h) | LPS-induced cytokine secretion (TLR4 [2]; 5 or 20 μM peptide, LPS 100 ng/ml, supernatants 24 h) | LPS-induced IFNβ and Rantes cytokine mRNA production (TLR4 [1]) | LPS-induced IL-1β mRNA production (TLR4 [1]) | LPS-induced IL-1β, IFNβ, and RANTES mRNA (TLR4 [1]; 20 μM peptide) | LPS-induced TNFα mRNA expression (TLR4 [1]; 20 μM peptide) | LPS-induced Rantes production (TLR4 [2]) | Decrease in LPS-induced cytokine production (FIG. 2, 8 panels) (TLR4 [2]) | LPS-induced transcriptional activation of IL-1β and IFN-β genes (TLR4 [1]; 20 μM peptide)
RQIKIWFQNRRMKWKKCLQDAIDHSGFT [TF5] | Yes, i.p. | inhibit | inhibit |  |  |  |  |  |  | 
RQIKIWFQNRRMKWKKEGSQASLRCF [TR3] |  |  |  | significantly inhibited | moderately inhibited | stronger inhibition | inhibit potently | inhibited | statistically significant | 
CC[C@H](C)[C@H](NC(=O)[C@H](CCCCN)NC(=O)[C@@H](NC(=O)[C@H](CCC(N)=O)NC(=O)[C@@H](N)CCCNC(=N)N)[C@@H](C)CC)C(=O)N[C@@H](Cc1c[nH]c2ccccc12)C(=O)N[C@@H](Cc1ccccc1)C(=O)N[C@@H](CCC(N)=O)C(=O)N[C@@H](CC(N)=O)C(=O)N[C@@H](CCCNC(=N)N)C(=O)N[C@@H](CCCNC(=N)N)C(=O)N[C@@H](CCSC)C(=O)N[C@@H](CCCCN)C(=O)N[C@@H](Cc1c[nH]c2ccccc12)C(=O)N[C@@H](CCCCN)C(=O)N[C@@H](CCCCN)C(=O)N[C@@H](CCC(=O)O)C(=O)N[C@@H](CC(C)C)C(=O)N[C@@H](CS)C(=O)N[C@@H](CCC(N)=O)C(=O)N[C@@H](C)C(=O)N[C@@H](CC(C)C)C(=O)N[C@@H](CO)C(=O)N[C@@H](CCCNC(=N)N)C(=O)N[C@@H](CO)C(=O)N[C@@H](Cc1c[nH]cn1)C(=O)N[C@@H](CS)C(=O)N[C@@H](CCCNC(=N)N)C(=O)O [TR5] (H-RQIKIWFQNRRMKWKKELCQALSRSHCR-OH) | yes, i.p. |  |  | significantly inhibited | moderately inhibited | stronger inhibition | inhibit potently | inhibited | statistically significant | 
RQIKIWFQNRRMKWKKAAYPPELRFMYYVD [TR9] |  |  |  | significantly inhibited | moderately inhibited | stronger inhibition | inhibit potently | inhibited | statistically significant | 
RQIKIWFQNRRMKWKKPGFLRDPWCKYQML [TR6] | yes, i.p. |  |  | significantly inhibited | moderately inhibited | stronger inhibition | inhibit potently | inhibited | statistically significant | blocked
RQIKIWFQNRRMKWKKGGFYQVKEAVIHY [TR11] |  |  |  | significantly inhibited | moderately inhibited | stronger inhibition | inhibit potently | inhibited | statistically significant | 
